We go through 28 compounds from publication PMC8402075, “Synthesis and Antiplasmodial Activity of Bisindolylcyclobutenediones” (Molecules, 2021).

The test system of assay [1] is P. falciparum (NF54-luc strain) erythrocytic stages. Description: Luciferase-based viability screening for antiplasmodial activity. The format is cell-based, Plasmodium falciparum. The note with it: for inhibition at 3 µM: read-out: Inhibition at 3 µM [%]. As to the method:
All synthesized new bisindolylcyclobutenediones 2a–2ar and the related bisindolylmaleimide 8 [37] were screened for inhibition of erythrocytic stages of Plasmodium falciparum employing a bioluminescence-based viability assay on transgenic parasites that constitutively express luciferase (PfNF54-luc). Initially, the compounds were evaluated in single-dose test runs (3 µM). If >20% viability inhibition was observed, dose-response curves were generated and IC50 values were calculated (Table 1). […] The bisindolylmaleimide 8 [37] inhibited the parasites in a single-digit micromolar concentration, similar to many of the bisindolylcyclobutenediones in the study. Because the bisindolylcyclobutenediones 2 display a higher degree of structural novelty, only this compound class was further pursued for its antiplasmodial activity. […] These structural features were considered unfavorable for orientations as illustrated in Figure 2 with 2a and Pfmap-2, PfPK5, PfCDPK2, Pflammer, and PfPK7, respectively. However, a structure generated for 2a in PfGSK-3 in which the indole units are oriented perpendicular to each other (Figure 2a) was considered compatible with the indicated substitution pattern. Consequently, the potent antiplasmodial derivatives 2k, 2ad, and 2ae were tested in a kinase Glo assay for inhibition of recombinant PfGSK-3. […] For the compounds with particularly potent antiplasmodial activity, cytotoxicity was also determined using the human cell line THP-1 to assess selectivity with respect to parasite cells (Table 2).
Screening for the antiplasmodial activity of test compounds was performed by luciferase-based viability assays as reported previously. In brief, asexual erythrocytic stages of transgenic NF54-luc P. falciparum were cultured as described elsewhere. Parasite cultures with parasitaemia of 0.5–1% were incubated in the presence of 3 µM test compounds for 48 h. After the subsequent addition of Bright-Glo substrate solution (Promega, Madison, WI), the resulting luminescence was measured. Untreated cultures (0.01% DMSO) were used as negative controls. Experiments were performed in triplicate and were repeated as a whole at least twice. Blasticidin (Sigma-Aldrich, St. Louis, MO, USA) was included as a positive control.

The next assay relates to human THP-1 cell line. Description: Cytotoxicity assay on human THP-1 cell line (Alamar Blue). The format is cell-based. Particulars: for Selectivity Index (SI) = IC50, THP-1/IC50, Pf: THP-1 versus P. falciparum NF54-luc; for IC50: human THP-1 cell line, 48 h, Alamar Blue. As to the method: The cytotoxicity of selected antiplasmodial bisindolylcyclobutenediones was determined against THP-1 cells following a protocol described previously. In brief, THP-1 cells were incubated with test compounds in serial compound dilutions in the presence of 0.01% DMSO at 37 °C. After 48 h, Alamar Blue was added, and after 4 h the fluorescence was read (λex = 544 nm, λem = 590 nm) using a microplate reader. THP-1 cells in wells containing medium plus 0.01% DMSO served as negative controls. Experiments were performed in triplicate and were repeated as a whole at least twice.
Background: Alamar Blue is a resazurin reagent that responds to reducing activity.

The mark [2] stands for this setting: Plasmodium falciparum, NF54, 48 h, read-out: IC50 [µM], concentration for 50% inhibition of P. falciparum (NF54-luc strain) erythrocytic stages.
Setting [3] is: Plasmodium falciparum, NF54, 48 h.
Setting [4] is: Plasmodium falciparum, NF54, read-out: IC50 P. falciparum (quoted in the discussion).
The mark [5] stands for this setting: Plasmodium falciparum, NF54, read-out: IC50, Pf [µM].

Like-named read-outs stand apart in the source and are kept apart here. Bounds are passed on as bounds.

As to `O=c1c(-c2c[nH]c3ccccc23)c(-c2c[nH]c3ccccc23)c1=O` [2a, 3,4-Bis(1H-indol-3-yl)cyclobut-3-ene-1,2-dione], the IC50 in assay [1] (setting [2]) was 8.33 µM.

On to `COc1ccc2[nH]cc(-c3c(-c4c[nH]c5ccc(F)cc45)c(=O)c3=O)c2c1` [2ab, 3-(5-Fluoro-1H-indol-3-yl)-4-(5-methoxy-1H-indol-3-yl)cyclobut-3-ene-1,2-dione], for which the inhibition (commonly the relative decrease from the control value, in per cent) at 3 µM in assay [1] (setting [3]) turned out to be 19.2 ± 3.1%.

As to `COc1ccc2[nH]cc(-c3c(-c4c[nH]c5ccc(Cl)cc45)c(=O)c3=O)c2c1` [2ac, 3-(5-Chloro-1H-indol-3-yl)-4-(5-methoxy-1H-indol-3-yl)cyclobut-3-ene-1,2-dione], the IC50 in assay [1] (setting [2]) came to 1.52 µM.

For the compound `COc1ccc2[nH]cc(-c3c(-c4cn(C)c5ccc(Br)cc45)c(=O)c3=O)c2c1` [2ag, 3-(5-Bromo-1-methyl-1H-indol-3-yl)-4-(5-methoxy-1H-indol-3-yl)cyclobut-3-ene-1,2-dione], the inhibition at 3 µM in assay [1] (setting [3]) was -0.06 ± 2.43%. Moreover, the IC50 in assay [1] (setting [4]) is more than 10 µM.

With `COc1ccc2[nH]cc(-c3c(-c4c[nH]c5ccc(C#N)cc45)c(=O)c3=O)c2c1` [2ah, 3-[2-(5-Methoxy-1H-indol-3-yl)-3,4-dioxocyclobut-1-en-1-yl]-1H-indole-5-carbonitrile], in assay [1] (setting [2]), the IC50 amounted to 6.92 µM.

As for `COc1ccc2[nH]cc(-c3c(-c4c[nH]c5c(Cl)cccc45)c(=O)c3=O)c2c1` [2ai, 3-(7-Chloro-1H-indol-3-yl)-4-(5-methoxy-1H-indol-3-yl)cyclobut-3-ene-1,2-dione], the figures for the IC50 (in assay [1] (setting [2]); in assay [1] (setting [5]); in the assay with human THP-1 cell line) were 0.691 µM, 0.69 µM and 179000 nM, respectively. Moreover, the inhibition at 3 µM in assay [1] (setting [3]) was found to be 84.5 ± 1%. Moreover, in the assay with human THP-1 cell line, the “Selectivity Index (SI) = IC50, THP-1/IC50, Pf” value (“Selectivity Index (SI) = IC50” for short) worked out at 259.

Consider `COc1ccc2[nH]cc(-c3c(-c4c[nH]c5c(Br)cccc45)c(=O)c3=O)c2c1` [2aj, 3-(7-Bromo-1H-indol-3-yl)-4-(5-methoxy-1H-indol-3-yl)cyclobut-3-ene-1,2-dione], for which the IC50 is 0.296 µM in assay [1] (setting [2]), 0.3 µM in assay [1] (setting [5]) and 1420 nM in the assay on human THP-1 cell line. In assay [1] (setting [3]), the inhibition at 3 µM worked out at 99.5 ± 0.4%. In addition, the “Selectivity Index (SI) = IC50” value with human THP-1 cell line was 4.7.

Regarding `COc1ccc2[nH]cc(-c3c(-c4c[nH]c5c(I)cccc45)c(=O)c3=O)c2c1` [2ak, 3-(7-Iodo-1H-indol-3-yl)-4-(5-methoxy-1H-indol-3-yl)cyclobut-3-ene-1,2-dione], the IC50 in assay [1] (setting [2]) stood at 0.116 µM; in assay [1] (setting [5]) it was 0.12 µM; in the assay on human THP-1 cell line it was 840 nM. Further, the inhibition at 3 µM in assay [1] (setting [3]) was 98.8 ± 1.2%. Moreover, the “Selectivity Index (SI) = IC50” value in the assay on human THP-1 cell line is 7.0.

Turning to `CCc1cccc2c(-c3c(-c4c[nH]c5ccc(OC)cc45)c(=O)c3=O)c[nH]c12` [2al, 3-(7-Ethyl-1H-indol-3-yl)-4-(5-methoxy-1H-indol-3-yl)cyclobut-3-ene-1,2-dione], the IC50 is 0.511 µM in assay [1] (setting [2]), 0.51 µM in assay [1] (setting [5]) and 700 nM with human THP-1 cell line. Further, in assay [1] (setting [3]), the inhibition at 3 µM was 87 ± 0.5%. Besides, the “Selectivity Index (SI) = IC50” value with human THP-1 cell line is reported as 1.4.

Regarding `COc1ccc2[nH]cc(-c3c(-c4c[nH]c5cc(Br)ccc45)c(=O)c3=O)c2c1` [2am, 3-(6-Bromo-1H-indol-3-yl)-4-(5-methoxy-1H-indol-3-yl)cyclobut-3-ene-1,2-dione], the inhibition at 3 µM in assay [1] (setting [3]) came to 9.55 ± 5.8%.

For `COc1ccc2[nH]cc(-c3c(-c4c[nH]c5cccc(Br)c45)c(=O)c3=O)c2c1` [2an, 3-(4-Bromo-1H-indol-3-yl)-4-(5-methoxy-1H-indol-3-yl)cyclobut-3-en-1,2-dione], the inhibition at 3 µM in assay [1] (setting [3]) worked out at 25.7 ± 2.7%.

Turning to `COc1ccc2c(c1)c(-c1c(-c3c[nH]c4ccc(Br)cc34)c(=O)c1=O)cn2C` [2ao, 3-(5-Bromo-1H-indol-3-yl)-4-(5-methoxy-1-methyl-1H-indol-3-yl)cyclobut-3-en-1,2-dione], the IC50 was found to be 0.504 µM in assay [1] (setting [2]), 0.5 µM in assay [1] (setting [5]), 0.54 µM in assay [1] (setting [4]) and 3130 nM in the assay with human THP-1 cell line. Further, the inhibition at 3 µM in assay [1] (setting [3]) came to 95.4 ± 1.1%. For the same compound, the “Selectivity Index (SI) = IC50” value in the assay with human THP-1 cell line is recorded as 6.3.

Turning to `O=c1c(-c2c[nH]c3ccc(O)cc23)c(-c2c[nH]c3ccc(Br)cc23)c1=O` [2ap, 3-(5-Bromo-1H-indol-3-yl)-4-(5-hydroxy-1H-indol-3-yl)cyclobut-3-ene-1,2-dione], in assay [1] (setting [3]), the inhibition at 3 µM was 2.52 ± 1.4%.

Take `O=c1c(-c2c[nH]c3ccc(I)cc23)c(-c2c[nH]c3ccc(I)cc23)c1=O` [2aq, 3,4-Bis(5-iodo-1H-indol-3-yl)cyclobut-3-ene-1,2-dione]: in assay [1] (setting [3]), the inhibition at 3 µM worked out at 1.79 ± 1.8%.

As for `O=c1c(-c2c[nH]c3ccccc23)c(-c2c[nH]c3ccc(Cl)cc23)c1=O` [2c, 3-(5-Chloro-1H-indol-3-yl)-4-(1H-indol-3-yl)cyclobut-3-ene-1,2-dione], in assay [1] (setting [2]), the IC50 was 4.23 µM.

As to `O=c1c(-c2c[nH]c3ccccc23)c(-c2c[nH]c3ccc(OCc4ccccc4)cc23)c1=O` [2e, 3-[5-(Benzyloxy)-1H-indol-3-yl]-4-(1H-indol-3-yl)cyclobut-3-ene-1,2-dione], the inhibition at 3 µM in assay [1] (setting [3]) was -4.43 ± 10.6%.

Turning to `N#Cc1ccc2[nH]cc(-c3c(-c4c[nH]c5ccccc45)c(=O)c3=O)c2c1` [2f, 3-[2-(1H-Indol-3-yl)-3,4-dioxocyclobut-1-ene-1-yl]-1H-indol-5-carbonitrile], in assay [1] (setting [2]), the IC50 worked out at 6.72 µM.

Turning to `Cc1[nH]c2ccccc2c1-c1c(-c2c[nH]c3ccccc23)c(=O)c1=O` [2g, 3-(1H-Indol-3-yl)-4-(2-methyl-1H-indol-3-yl)cyclobut-3-ene-1,2-dione], the IC50 in assay [1] (setting [2]) is more than 30 µM.

With `Cn1cc(-c2c(-c3cn(C)c4ccccc34)c(=O)c2=O)c2ccccc21` [2i, 3,4-Bis(1-methyl-1H-indol-3-yl)cyclobut-3-ene-1,2-dione], the inhibition at 3 µM in assay [1] (setting [3]) worked out at 3.53 ± 1.7%.

`O=c1c(-c2c(-c3ccccc3)[nH]c3ccccc23)c(-c2c(-c3ccccc3)[nH]c3ccccc23)c1=O` [2m, 3,4-Bis(2-phenyl-1H-indol-3-yl)cyclobut-3-ene-1,2-dione]: in assay [1] (setting [2]), the IC50 is 2.47 µM.

As to `O=c1c(-c2c[nH]c3ccc(Br)cc23)c(-c2c[nH]c3ccc(Br)cc23)c1=O` [2o, 3,4-Bis(5-bromo-1H-indol-3-yl)cyclobut-3-ene-1,2-dione], in assay [1] (setting [2]), the IC50 is more than 30 µM.

As for `N#Cc1ccc2[nH]cc(-c3c(-c4c[nH]c5ccc(C#N)cc45)c(=O)c3=O)c2c1` [2p, 3,3’-(3,4-Dioxocyclobut-1-ene-1,2-diyl)bis(1H-indole-5-carbonitrile)], the inhibition at 3 µM in assay [1] (setting [3]) is -3.1 ± 0.9%.

As to `Cn1cc(-c2c(-c3c[nH]c4ccc(Br)cc34)c(=O)c2=O)c2ccccc21` [2t, 3-(5-Bromo-1H-indol-3-yl)-4-(1-methyl-1H-indol-3-yl)cyclobut-3-ene-1,2-dione], the inhibition at 3 µM in assay [1] (setting [3]) turned out to be 1.38 ± 3.3%.

For `COc1ccc2[nH]cc(-c3c(-c4c(C)[nH]c5ccccc45)c(=O)c3=O)c2c1` [2v, 3-(5-Methoxy-1H-indol-3-yl)-4-(2-methyl-1H-indol-3-yl)cyclobut-3-ene-1,2-dione], the IC50 in assay [1] (setting [2]) is 10 µM.

For the compound `Cc1[nH]c2ccccc2c1-c1c(-c2c(-c3ccccc3)[nH]c3ccccc23)c(=O)c1=O` [2w, 3-(2-Methyl-1H-indol-3-yl)-4-(2-phenyl-1H-indol-3-yl)cyclobut-3-ene-1,2-dione], the IC50 in assay [1] (setting [2]) was determined as 9.26 µM.

Consider `Cc1[nH]c2ccccc2c1-c1c(-c2c[nH]c3ccc(Br)cc23)c(=O)c1=O` [2x, 3-(5-Bromo-1H-indol-3-yl)-4-(2-methyl-1H-indol-3-yl)cyclobut-3-ene-1,2-dione], for which, in assay [1] (setting [2]), the IC50 is more than 30 µM.

For the compound `CN(CC[C@H](N)CC(=O)N[C@H]1C=C[C@H](n2ccc(N)nc2=O)O[C@@H]1C(=O)O)C(=N)N` [BSD, Blasticidin, reference compound], the Inhibition (usually the percentage by which the read-out fell short of the control) at 3 µM [%] in assay [1] (3 µM test compound, 48 h, P. falciparum NF54-luc erythrocytic stages) was 97.6 ± 0.5%. Moreover, the IC50 in assay [1] (Table 1, 48 h incubation, luminescence viability readout, read-out: IC50 [µM], concentration for 50% inhibition of P. falciparum (NF54-luc strain) erythrocytic stages) was determined as 0.288 µM.

As for `CN1C(=O)C(c2c[nH]c3ccccc23)=C(c2c[nH]c3ccccc23)C1=O` [compound 8, reference compound], the IC50 in assay [1] (setting [2]) came to 4 µM. The inhibition at 3 µM in assay [1] (setting [3]) stood at 34.6 ± 0.8%.
